# Data taken from PubChem BioAssay AID328 (DTP/NCI, 2004).
# “And” between values parts separate entries of the source, which are not always exact repeats. Identical values can stand only once. Inconclusive results and toxic doses are left out.
# System: BDF1 mice, P388 leukemia ip, median survival T/C
# Assay: NCI In Vivo Anticancer Drug Screen. Data for tumor model P388 Leukemia (intraperitoneal) in B6D2F1 (BDF1) mice
# Conditions: endpoint: median survival time, higher = longer survival
# Outline: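 In tumour-bearing mice, survival after compound treatment is set against the vehicle group and given as a quotient.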
# [1] = dose: 100.0 mg/kg/injection, schedule: Q01DX009 (ip), vehicle: Klucel (hydroxypropylcellulose) (HPC)
# [2] = dose: 200.0 mg/kg/injection, schedule: Q01DX009 (ip), vehicle: Klucel (hydroxypropylcellulose) (HPC)
# [3] = dose: 400.0 mg/kg/injection, schedule: Q01DX009 (ip), vehicle: Klucel (hydroxypropylcellulose) (HPC)
# [4] = dose: 100.0 mg/kg/injection, schedule: Q01DX009 (ip), vehicle: saline
# [5] = dose: 200.0 mg/kg/injection, schedule: Q01DX009 (ip), vehicle: saline
# [6] = dose: 400.0 mg/kg/injection, schedule: Q01DX009 (ip), vehicle: saline
# [7] = dose: 6.25 mg/kg/injection, schedule: Q04DX003 (ip), vehicle: saline with Tween-80
# [8] = dose: 12.5 mg/kg/injection, schedule: Q04DX003 (ip), vehicle: saline with Tween-80
# [9] = dose: 25.0 mg/kg/injection, schedule: Q04DX003 (ip), vehicle: saline with Tween-80
# [10] = dose: 12.5 mg/kg/injection, schedule: Q01DX009 (ip), vehicle: saline with Tween-80
# [11] = dose: 25.0 mg/kg/injection, schedule: Q01DX009 (ip), vehicle: saline with Tween-80
# [12] = dose: 50.0 mg/kg/injection, schedule: Q01DX009 (ip), vehicle: saline with Tween-80
# [13] = dose: 100.0 mg/kg/injection, schedule: Q04DX003 (ip), vehicle: saline with Tween-80
# [14] = dose: 200.0 mg/kg/injection, schedule: Q04DX003 (ip), vehicle: saline with Tween-80
# [15] = dose: 100.0 mg/kg/injection, schedule: Q04DX003 (ip), vehicle: Klucel (hydroxypropylcellulose) (HPC)
# [16] = dose: 200.0 mg/kg/injection, schedule: Q04DX003 (ip), vehicle: Klucel (hydroxypropylcellulose) (HPC)
# [17] = dose: 400.0 mg/kg/injection, schedule: Q04DX003 (ip), vehicle: Klucel (hydroxypropylcellulose) (HPC)
# [18] = dose: 50.0 mg/kg/injection, schedule: Q01DX009 (ip), vehicle: saline
# [19] = dose: 50.0 mg/kg/injection, schedule: Q04DX003 (ip), vehicle: saline
# [20] = dose: 100.0 mg/kg/injection, schedule: Q01DX009 (ip), vehicle: saline with Tween-80
# [21] = dose: 100.0 mg/kg/injection, schedule: Q04DX003 (ip), vehicle: saline
# [22] = dose: 200.0 mg/kg/injection, schedule: Q04DX003 (ip), vehicle: saline
# [23] = dose: 25.0 mg/kg/injection, schedule: Q01DX009 (ip), vehicle: saline
structure (smiles),measurement,setting,value
CC1(C)C/C(=C\c2ccc(Br)cc2)C(=O)c2ccccc21,T/C,[1],100 % of control
same,T/C,[2],105 % of control
same,T/C,[3],95 % of control
O=C(Nc1ccc2c(c1)C(Br)c1ccccc1-2)C(F)(F)F (configuration not stated),T/C,"dose: 50.0 mg/kg/injection, schedule: Q01DX009 (ip), vehicle: Klucel (hydroxypropylcellulose) (HPC)",90 % of control
same,T/C,[1],100 % of control
same,T/C,[2],118 % of control
C=CCc1cn(C2CC(O)C(CO)O2)c(=O)[nH]c1=O (configuration not stated),T/C,[4],116 % of control
same,T/C,[5],108 % of control
same,T/C,[6],116 % of control
NC(N)=NO,T/C,"dose: 9.37 mg/kg/injection, schedule: Q01DX009 (ip), vehicle: saline",91 % of control
same,T/C,"dose: 9.38 mg/kg/injection, schedule: Q01DX009 (ip), vehicle: saline",90 % of control
same,T/C,"dose: 18.75 mg/kg/injection, schedule: Q01DX009 (ip), vehicle: saline",100 % of control and 103 % of control
same,T/C,"dose: 37.5 mg/kg/injection, schedule: Q01DX009 (ip), vehicle: saline",112 % of control and 115 % of control
same,T/C,[5],166 % of control and 168 % of control
same,T/C,"dose: 300.0 mg/kg/injection, schedule: Q01DX009 (ip), vehicle: saline",158 % of control and 163 % of control
same,T/C,[6],195 % of control and 198 % of control
O=C(O)c1ccccc1Oc1ccccc1C(=O)O,T/C,[4],100 % of control
same,T/C,[5],90 % of control
same,T/C,[6],104 % of control
CCCCN(CCCC)CC(O)c1ccc2cc(Cl)cc(Cl)c2n1 (configuration not stated),T/C,[7],110 % of control
same,T/C,[8],115 % of control
same,T/C,[9],110 % of control
Oc1ccc2ccccc2c1/C=N\Sc1ccc(Cl)cc1,T/C,[10],90 % of control
same,T/C,[11],96 % of control
same,T/C,[12],106 % of control
c1csc(-c2nc3ccccc3s2)c1,T/C,[13],109 % of control
same,T/C,[14],100 % of control
same,T/C,"dose: 400.0 mg/kg/injection, schedule: Q04DX003 (ip), vehicle: saline with Tween-80",100 % of control
CCC1(O)C2CCCC1CCC2 (configuration not stated),T/C,"dose: 100.0 mg/kg/injection, schedule: Q01DX009 (ip), vehicle: other",100 % of control
same,T/C,[15],100 % of control
same,T/C,"dose: 200.0 mg/kg/injection, schedule: Q01DX009 (ip), vehicle: other",109 % of control
same,T/C,[16],108 % of control
same,T/C,"dose: 400.0 mg/kg/injection, schedule: Q01DX009 (ip), vehicle: other",113 % of control
same,T/C,[17],100 % of control
Cn1nnc(N/N=C/c2ccccc2)n1,T/C,"dose: 3.12 mg/kg/injection, schedule: Q01DX009 (ip), vehicle: saline with Tween-80",102 % of control
same,T/C,"dose: 4.0 mg/kg/injection, schedule: Q01DX009 (ip), vehicle: saline with Tween-80",121 % of control
same,T/C,"dose: 6.25 mg/kg/injection, schedule: Q01DX009 (ip), vehicle: saline with Tween-80",93 % of control
same,T/C,[7],112 % of control
same,T/C,"dose: 8.0 mg/kg/injection, schedule: Q01DX009 (ip), vehicle: saline with Tween-80",123 % of control
same,T/C,"dose: 12.0 mg/kg/injection, schedule: Q01DX009 (ip), vehicle: saline with Tween-80",120 % of control
same,T/C,[10],97 % of control and 107 % of control
same,T/C,[8],105 % of control
same,T/C,"dose: 16.0 mg/kg/injection, schedule: Q01DX009 (ip), vehicle: saline with Tween-80",98 % of control
same,T/C,"dose: 20.0 mg/kg/injection, schedule: Q01DX009 (ip), vehicle: saline with Tween-80",114 % of control
same,T/C,[11],100 % of control and 107 % of control
same,T/C,[9],99 % of control and 100 % of control
O=C(Oc1ccc([N+](=O)[O-])cc1)c1ccc(C[n+]2ccccc2)cc1,T/C,[12],91 % of control
same,T/C,[18],89 % of control
same,T/C,[19],91 % of control
same,T/C,[20],109 % of control
same,T/C,[4],89 % of control
same,T/C,[21],104 % of control and 108 % of control
same,T/C,"dose: 200.0 mg/kg/injection, schedule: Q01DX009 (ip), vehicle: saline with Tween-80",116 % of control
same,T/C,[5],96 % of control
same,T/C,[22],90 % of control and 100 % of control
CC1(CNC(=O)C(=O)NCC2(C)CO2)CO1 (configuration not stated),T/C,"dose: 50.0 mg/kg/injection, schedule: Q04DX003 (ip), vehicle: saline with Tween-80",158 % of control
same,T/C,[20],154 % of control
same,T/C,[13],191 % of control
same,T/C,"dose: 132.0 mg/kg/injection, schedule: Q04DX003 (ip), vehicle: saline with Tween-80",208 % of control
same,T/C,[14],183 % of control
same,T/C,"dose: 300.0 mg/kg/injection, schedule: Q04DX003 (ip), vehicle: saline with Tween-80",233 % of control
Nc1ncnc2sc3c(c12)CCCC3,T/C,[1],105 % of control
same,T/C,[2],114 % of control
same,T/C,[3],108 % of control
O=[N+]([O-])c1ccc(NC2CCCCC2)c2c1no[n+]2[O-],T/C,"dose: 6.25 mg/kg/injection, schedule: Q01DX009 (ip), vehicle: saline",95 % of control
same,T/C,"dose: 12.5 mg/kg/injection, schedule: Q01DX009 (ip), vehicle: saline",97 % of control
same,T/C,[23],95 % of control
CCOC(=O)/C(=C\c1ccccc1)O/C(=C/c1ccccc1)C(=O)OCC,T/C,"dose: 100.0 mg/kg/injection, schedule: Q04DX002 (ip), vehicle: saline with Tween-80",89 % of control
same,T/C,"dose: 400.0 mg/kg/injection, schedule: Q04DX002 (ip), vehicle: saline with Tween-80",93 % of control
COc1cc2ccc3cc[n+](C)cc3c2cc1OC,T/C,[23],95 % of control
same,T/C,"dose: 25.0 mg/kg/injection, schedule: Q04DX003 (ip), vehicle: saline",104 % of control
same,T/C,[18],96 % of control and 100 % of control
same,T/C,[19],95 % of control
same,T/C,[4],86 % of control
same,T/C,[21],95 % of control and 104 % of control
same,T/C,[22],90 % of control
Cc1c(N)nc(C(CC(N)=O)NCC(N)C(N)=O)nc1C(=O)NC(C(=O)NC(C)C(O)C(C)C(=O)NC(C(=O)NCCc1nc(-c2nc(C(=O)NCCC[S+](C)C)cs2)cs1)C(C)O)C(OC1OC(CO)C(O)C(O)C1OC1OC(CO)C(O)C(OC(N)=O)C1O)c1cnc[nH]1 (configuration not stated),T/C,"dose: 0.5 mg/kg/injection, schedule: Q01DX009 (ip), vehicle: saline",115 % of control
same,T/C,"dose: 1.0 mg/kg/injection, schedule: Q01DX009 (ip), vehicle: saline",115 % of control and 116 % of control
same,T/C,"dose: 2.0 mg/kg/injection, schedule: Q01DX009 (ip), vehicle: saline",120 % of control
same,T/C,"dose: 8.0 mg/kg/injection, schedule: Q01DX009 (ip), vehicle: saline",163 % of control
same,T/C,"dose: 16.0 mg/kg/injection, schedule: Q01DX009 (ip), vehicle: saline",90 % of control and 93 % of control and 118 % of control
same,T/C,"dose: 32.0 mg/kg/injection, schedule: Q01DX009 (ip), vehicle: saline",100 % of control
CCCCCCCCCCCCCCCC(N)=O,T/C,"dose: 12.5 mg/kg/injection, schedule: Q01DX009 (ip), vehicle: gum acacia",100 % of control
same,T/C,"dose: 50.0 mg/kg/injection, schedule: Q01DX009 (ip), vehicle: gum acacia",91 % of control
same,T/C,[15],86 % of control
same,T/C,[16],90 % of control
same,T/C,[17],104 % of control
NNC(=O)CCCCCCCCCCCCCCCO,T/C,[12],94 % of control
CCC1(O)CC2CN(CCc3c([nH]c4ccccc34)C(C(=O)OC)(c3cc4c(cc3OC)N(C)C3C(O)(C(=O)NCCO)C(O)C5(CC)C=CCN6CCC43C65)C2)C1 (configuration not stated),T/C,"dose: 500.0 micrograms/kg/injection, schedule: Q04DX003 (ip), vehicle: saline",173 % of control
same,T/C,"dose: 1000.0 micrograms/kg/injection, schedule: Q04DX003 (ip), vehicle: saline",182 % of control
same,T/C,"dose: 2000.0 micrograms/kg/injection, schedule: Q04DX003 (ip), vehicle: saline",219 % of control
same,T/C,"dose: 4000.0 micrograms/kg/injection, schedule: Q04DX003 (ip), vehicle: saline",286 % of control
N#CC(=Nc1cc(Cl)cc(Cl)c1)C1=C(O)c2ccccc2C1=O,T/C,"dose: 50.0 mg/kg/injection, schedule: Q01DX005 (ip), vehicle: saline with Tween-80",101 % of control
same,T/C,"dose: 100.0 mg/kg/injection, schedule: Q01DX005 (ip), vehicle: saline with Tween-80",111 % of control
same,T/C,"dose: 200.0 mg/kg/injection, schedule: Q01DX005 (ip), vehicle: saline with Tween-80",101 % of control
Cc1cc(O)c(C(c2ccc(N(C)C)cc2Cl)c2c(O)cc(C)[nH]c2=O)c(=O)[nH]1,T/C,[12],99 % of control
same,T/C,[20],115 % of control
